Source: ChEMBL document CHEMBL6121047, “Design, Synthesis, and Evaluation of Selective PDE4 Inhibitors for the Therapy of Pulmonary Injury” (J Med Chem, 2025)
Calls of active or inactive are those of the source. The calls are words filed in the database; no cut-off is given here.

Experiments:
[1] = Half life in Sprague-Dawley rat at 5 mg/kg, iv measured upto 24 hrs by LC-MS/MS analysis; format: ADME, organism-based; conditions: in vivo
RAW264.7 [2] = experiment: Anti-inflammatory activity in LPS-induced mouse RAW264.7 cells assessed as inhibition of TNF-alpha secretion level at 10 uM preincubated with compound for 1 hr followed by LPS addition and measured after 24 hrs by ELISA; format: functional, cell-based; conditions: time 25.0 hrs
[3] = Metabolic stability in dog liver microsomes assessed as half life incubated for 4 hrs in presence of NADPH by LC-MS analysis; format: ADME, Canis lupus familiaris, Microsome
[4] = Acute toxicity in Sprague-Dawley rat assessed as effect on apparent heart coefficient change at 1 g/Kg, po administered via gavage; format: organism-based; conditions: in vivo, 1000 mg/kg
[5] = Acute toxicity in Sprague-Dawley rat assessed as effect on apparent spleen coefficient change at 1 g/Kg, po administered via gavage; format: organism-based; conditions: in vivo, 1000 mg/kg
[6] = Metabolic stability in mouse liver microsomes assessed as half life incubated for 4 hrs in presence of NADPH by LC-MS analysis; format: ADME, Microsome
[7] = molecular target: T1, 3',5'-cyclic-AMP phosphodiesterase 4B (Homo sapiens, UniProt Q07343); experiment: Inhibition of PDE4B (unknown origin) using FAM-cAMP as substrate preincubated with compound for compound for 15 mins followed by substrate addition and measured after 30 mins by Envision multilabel reader analysis
[8] = molecular target: T1, 3',5'-cyclic-AMP phosphodiesterase 4B; experiment: Inhibition of recombinant full length PDE4B (unknown origin) using FAM-cAMP as substrate at 1 uM preincubated with compound for compound for 15 mins followed by substrate addition and measured after 30 mins by Envision multilabel reader analysis relative to control; conditions: time 45.0 min
[9] = Toxicity in female Beagle dog assessed as side effects at 1 to 3 mg/kg, po administered once via gavage and measured within 24 hrs; format: organism-based, Canis lupus familiaris; conditions: in vivo, dose 1-3 mg/kg
[10] = molecular target: 3',5'-cyclic-AMP phosphodiesterase 4A (Homo sapiens, UniProt P27815); experiment: Inhibition of PDE4A (unknown origin) using FAM-cAMP as substrate preincubated with compound for compound for 15 mins followed by substrate addition and measured after 30 mins by Envision multilabel reader analysis
[11] = Acute toxicity in Sprague-Dawley rat assessed as pathological changes in lung at 1 g/Kg, po administered via gavage by H and E staining based analysis; format: organism-based; conditions: in vivo, 1000 mg/kg
[12] = Metabolic stability in rat liver microsomes assessed as half life incubated for 4 hrs in presence of NADPH by LC-MS analysis; format: ADME, Microsome
Mus musculus [13] = experiment: Antifibrotic activity against LPS-induced acute lung injury male BALB/c mouse model assessed as decrease in collagen deposition at 8 to 32 mg/kg administered once a day via gavage for 7 days followed by LPS stimulation and measured after 24 hrs by masson staining based microscopic analysis; format: functional, organism-based; conditions: dose 8-32 mg/kg, time 192.0 hrs
[14] = Acute toxicity in Sprague-Dawley rat assessed as pathological changes in kidney at 1 g/Kg, po administered via gavage by H and E staining based analysis; format: organism-based; conditions: in vivo, 1000 mg/kg
[15] = Tmax in Sprague-Dawley rat at 10 mg/kg, po measured upto 24 hrs by LC-MS/MS analysis; format: ADME, organism-based; conditions: in vivo
[16] = AUC (0 to infinity) in Sprague-Dawley rat at 5 mg/kg, iv measured upto 24 hrs by LC-MS/MS analysis; format: ADME, organism-based; conditions: in vivo
[17] = Acute toxicity in Sprague-Dawley rat assessed as pathological changes in liver at 1 g/Kg, po administered via gavage by H and E staining based analysis; format: organism-based; conditions: in vivo, 1000 mg/kg
Mus musculus [18] = experiment: Antitussive activity in male BALB/c mouse model assessed as reduction in cough frequency at 32 mg/kg administered every day via gavage for 7 days at 1 hrs post last dose and measured within 3 min; format: functional, organism-based; conditions: time 169.05 hrs
Mus musculus [19] = experiment: Antitussive activity in male BALB/c mouse model assessed as delay in cough incubation period at 32 mg/kg administered every day via gavage for 7 days at 1 hrs post last dose and measured within 3 min; format: functional, organism-based; conditions: time 169.05 hrs
[20] = Metabolic stability in monkey liver microsomes assessed as half life incubated for 4 hrs in presence of NADPH by LC-MS analysis; format: ADME, Macaca mulatta, Microsome; conditions: rhesus monkey
RAW264.7 [21] = experiment: Anti-inflammatory activity in LPS-induced mouse RAW264.7 cells assessed as decrease in p38 MAPK protein level by Western blotting analysis; format: functional, cell-based
[22] = Half life in Sprague-Dawley rat at 10 mg/kg, po measured upto 24 hrs by LC-MS/MS analysis; format: ADME, organism-based; conditions: in vivo
BEAS-2B = experiment: Anti-inflammatory activity in LPS-induced human BEAS-2B cells assessed as inhibition of IL-6 secretion level at 10 uM preincubated with compound for 1 hr followed by LPS addition and measured after 24 hrs by ELISA; format: functional, cell-based; conditions: time 25.0 hrs
[23] = AUC (0 to infinity) in Sprague-Dawley rat at 10 mg/kg, po measured upto 24 hrs by LC-MS/MS analysis; format: ADME, organism-based; conditions: in vivo
Mus musculus [24] = experiment: Anti-inflammatory activity against LPS-induced acute lung injury male BALB/c mouse model assessed as reduction in TNF-alpha level in BALF at 8 to 32 mg/kg administered once a day via gavage for 7 days followed by LPS stimulation and measured after 24 hrs; format: functional, organism-based; conditions: dose 8-32 mg/kg, time 192.0 hrs
RAW264.7 [25] = experiment: cells; conditions: Mus musculus
[26] = Acute toxicity in Sprague-Dawley rat assessed as effect on apparent kidney coefficient change at 1 g/Kg, po administered via gavage; format: organism-based; conditions: in vivo, 1000 mg/kg
[27] = Clearance in Sprague-Dawley rat at 5 mg/kg, iv measured upto 24 hrs by LC-MS/MS analysis; format: ADME, organism-based; conditions: in vivo
RAW264.7 [28] = experiment: Anti-inflammatory activity in LPS-induced mouse RAW264.7 cells assessed as inhibition of IL-6 secretion level at 10 uM preincubated with compound for 1 hr followed by LPS addition and measured after 24 hrs by ELISA; format: functional, cell-based; conditions: time 25.0 hrs

T1 sequence (Q07343 whole entry): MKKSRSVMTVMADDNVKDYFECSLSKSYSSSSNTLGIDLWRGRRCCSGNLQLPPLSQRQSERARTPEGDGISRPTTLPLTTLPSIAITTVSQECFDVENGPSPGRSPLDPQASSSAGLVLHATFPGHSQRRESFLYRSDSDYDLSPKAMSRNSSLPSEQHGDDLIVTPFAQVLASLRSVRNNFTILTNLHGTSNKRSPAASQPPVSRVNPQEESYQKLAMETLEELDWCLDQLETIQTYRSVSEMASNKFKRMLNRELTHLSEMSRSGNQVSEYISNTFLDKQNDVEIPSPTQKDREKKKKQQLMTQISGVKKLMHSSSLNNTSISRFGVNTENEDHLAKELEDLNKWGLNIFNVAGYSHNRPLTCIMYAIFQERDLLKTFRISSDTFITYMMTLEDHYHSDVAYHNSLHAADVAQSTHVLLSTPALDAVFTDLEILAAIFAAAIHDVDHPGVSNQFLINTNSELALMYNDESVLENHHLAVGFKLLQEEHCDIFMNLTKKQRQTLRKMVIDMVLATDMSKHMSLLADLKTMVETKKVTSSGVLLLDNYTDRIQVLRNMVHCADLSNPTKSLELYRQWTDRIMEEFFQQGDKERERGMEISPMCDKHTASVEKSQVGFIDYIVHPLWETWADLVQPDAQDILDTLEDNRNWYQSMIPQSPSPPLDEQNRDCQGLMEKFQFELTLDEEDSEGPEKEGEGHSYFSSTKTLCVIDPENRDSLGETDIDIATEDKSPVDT
Chain of 3',5'-cyclic-AMP phosphodiesterase 4A (P27815 whole entry): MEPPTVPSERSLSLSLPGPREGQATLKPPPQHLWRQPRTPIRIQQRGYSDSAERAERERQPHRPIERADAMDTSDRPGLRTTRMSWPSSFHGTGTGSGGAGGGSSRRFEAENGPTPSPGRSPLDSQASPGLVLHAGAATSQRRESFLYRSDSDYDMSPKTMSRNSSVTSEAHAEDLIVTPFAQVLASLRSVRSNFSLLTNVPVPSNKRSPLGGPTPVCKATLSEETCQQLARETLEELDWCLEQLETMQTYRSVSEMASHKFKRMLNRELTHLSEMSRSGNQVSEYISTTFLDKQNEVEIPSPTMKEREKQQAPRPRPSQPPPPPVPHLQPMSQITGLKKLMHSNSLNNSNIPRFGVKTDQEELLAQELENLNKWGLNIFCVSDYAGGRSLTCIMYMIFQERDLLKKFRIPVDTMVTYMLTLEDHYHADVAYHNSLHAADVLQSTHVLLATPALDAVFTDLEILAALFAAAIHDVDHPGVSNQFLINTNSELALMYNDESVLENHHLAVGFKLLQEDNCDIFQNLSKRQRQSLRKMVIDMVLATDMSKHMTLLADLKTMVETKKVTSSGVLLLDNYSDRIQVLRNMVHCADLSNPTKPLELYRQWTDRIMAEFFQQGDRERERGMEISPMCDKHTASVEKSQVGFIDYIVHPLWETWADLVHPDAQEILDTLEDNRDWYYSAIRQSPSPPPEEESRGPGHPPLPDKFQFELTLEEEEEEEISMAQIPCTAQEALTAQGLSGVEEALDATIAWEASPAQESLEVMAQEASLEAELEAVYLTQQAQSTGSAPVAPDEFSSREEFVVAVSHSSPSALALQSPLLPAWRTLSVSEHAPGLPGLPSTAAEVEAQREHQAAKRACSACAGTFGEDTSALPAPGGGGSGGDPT

O=C(Nc1nccs1)c1cccc2[nH]c(-c3ccc(OC(F)F)c(OCC4CC4)c3)nc12
half-life [1]: 1.97 h | Activity (RAW264.7 [2]): Active | half-life [3]: 0.721 h | Activity [4]: Non-toxic | Activity [5]: Non-toxic | half-life [6]: 0.67 h | IC50 [7]: 48.8 nM | inhibition [8]: 89.9% | Activity [9]: Non-toxic | IC50 [10]: 89.7 nM | Activity [11]: Non-toxic | half-life [12]: 1.03 h | Activity (Mus musculus [13]): Active | Activity [14]: Non-toxic | Tmax [15]: 3 h | AUC(0-inf) [16]: 23200 ng·h/mL | Activity [17]: Non-toxic | Activity (Mus musculus [18]): Active | Activity (Mus musculus [19]): Active | half-life [20]: 0.737 h | Activity (RAW264.7 [21]): Active | half-life [22]: 3.75 h | Activity (BEAS-2B): Active | AUC(0-inf) [23]: 2160 ng·h/mL | Activity (Mus musculus [24]): Active | IC50 (RAW264.7 [25]): 30100 nM | Activity [26]: Non-toxic | clearance [27]: 3.62 mL/min/kg | Activity (RAW264.7 [28]): Active
